Data: patent publication US20260167659A1, “STING AGONISTS” (LIGACHEM BIOSCIENCES INC., priority 2022, published 2026)

Legend:
hSTING-WT (R232) = molecular target: T1, hSTING-WT (R232) (Homo sapiens, UniProt Q86WV6, H232R); assay: STING activation, THP1-Dual IRF3 reporter assay, hSTING-R232 cells; format: cell-based; conditions: IRF3 luciferase reporter, 24 hours, read-out: STING activity using hSTING-R232 cells EC50
T1 construct: host or cells: THP1-Dual cells (human monocytes) with knocked-in hSTING R232
Experimental: (§1) To assess potency of STING agonist compounds described herein, THP1-Dual™ Cells (NF—KB-SEAP and IRF-Lucia luciferase reporter monocytes, InvivoGen) were used. The reporter cells were knocked-in either of hSTING-WT (R232, #thpd-r232), HAQ variant (#thpd-nfis), or H232 variant (#thpd-h232). All cells were cultured at 37° C. in a humidified incubator at 5% CO2 and maintained in RPMI 1640 medium (Gibco, #22400097) supplemented with 10% heat-inactivated FBS and 1×Pen-Strep (Gibco, #15140122). To measure STING agonist-mediated IRF3 activity, the cells (9.0×10^4 cells per well) were seeded in a flat-bottomed 96-well plate. The next day, the cells were treated with compounds in a serial dilution for 24 hours. Subsequently, 20 μL of the cell culture supernatant and 50 μL of the QUANTI-Luc™ reagent (InvivoGen, #rep-qlc) were mixed in a 96-well white plate and then, luciferase activity was measured using an EnVision Xcite multilabel reader. The data were analyzed using Prism8 software (4-parameter).
(§2) The potency of STING agonist compounds was evaluated by the activation of Type I Interferon pathway using THP-1 IRF3 reporter assay.

hSTING HAQ variant = molecular target: T2, hSTING HAQ variant (Homo sapiens, UniProt Q86WV6, G230A/H232R/R293Q/R71H); assay: STING activation, THP1-Dual IRF3 reporter assay, hSTING-HAQ cells; format: cell-based; conditions: IRF3 luciferase reporter, 24 hours, read-out: STING activity using hSTING-HAQ cells, HAQ EC50
T2 construct: host or cells: THP1-Dual cells (human monocytes)
Experimental: as §1, §2

hSTING H232 variant = molecular target: T3, hSTING H232 variant (Homo sapiens, UniProt Q86WV6); assay: STING activation, THP1-Dual IRF3 reporter assay, hSTING-H232 cells; format: cell-based; conditions: IRF3 luciferase reporter, 24 hours, read-out: STING activity using hSTING-H232 cells, H232 EC50
T3 construct: host or cells: THP1-Dual cells (human monocytes) with knocked-in hSTING H232
Experimental: as §1, §2

[1] = Plasma pharmacokinetics in naive Balb/C mouse, LC-MS/MS; format: in vivo; conditions: 1.5 mg/kg single IV; for AUC∞, norm / Cmax, norm: n = 3, dose-normalised; for AUC(0-inf) / AUC(0-t) / C0 / Cmax / clearance / half-life / Vd: female; for AUC(0-inf) / AUC(0-t) / C0 / Cmax: n = 3, plasma; for clearance / half-life / Vd: plasma; for clearance / half-life: n = 3; for Vd: n = 3, read-out: VSS
Experimental: For in vivo evaluation of STING agonist compounds described herein in naïve Balb/C mouse, single doses of STING agonist compounds were given at 1.5 mg/kg intravenously into female BALB/c mice (Orientbio, South Korea) at 6-8 weeks of age. Pharmacokinetics were studied following injection of the STING agonist compounds into Balb/C mice. Plasma samples were taken at various time points and stored frozen for analysis. The plasma concentrations of the STING agonist compounds at the indicated time points were measured using a LC-MS/MS analysis method.
Briefly, 250 μL of acetonitrile (ACN) solution was added in both 50 μL of sample and 50 μL of plasma containing 10 nM Dextromethorphan (internal standard), and the solutions were mixed vigorously using a vortex mixer for 5 minutes. The samples were then spun down at 14,000 rpm, 4° C. for 5 minutes. 100 μL of supernatants were combined with 100 μL of mobile phase A (0.1% formic acid in water with 5% ACN) and mixed thoroughly. The samples were measured for the STING agonist compounds using a LC-MS/MS (Nexera LC40 (SHIMADZU) and QTRAP4500 (SCIEX)).

[2] = Normal cell cytotoxicity in PBMCs, CellTiter-Glo; format: cell-based; conditions: human, read-out: In vitro cell cytotoxicity in PBMCs CC50
Experimental: PBMCs were also purchased from […]™ (#700025.2). The cells (8.0×10^4 cells per well) were seeded in a flat-bottomed 96-well plate in RPMI 1640 medium (Gibco, #22400097) with 10% heat-inactivated FBS and 1× Antibiotic-Antimycotic (Gibco, #15240062) and rested for 24 hours at 37° C. […] After 72 hours, the cell viability was measured using CellTiter-Glo Luminescent Cell Viability Assay (Promega, #G7573) according to the manufacture's instruction. The signal was detected using an EnVision Xcite multilabel reader and data were analyzed using GraphPad Prism 8 software.
To verify the effect of the STING agonist compounds in normal cell cytotoxicity, the PBMCs were treated with the STING agonist compounds for 3 days and measured the percentage of cell death.

human STING = molecular target: T4, human STING (Homo sapiens, UniProt Q86WV6, H232R); assay: Direct STING binding, HUMAN STING WT BINDING KIT (Cisbio); conditions: direct binding to human STING WT protein in vitro; read-out: Binding potency EC50
T4 construct: purchased Cisbio 64BDSTGPEG
Text: Additionally, for analysis of direct binding potency of STING agonist compounds described herein to human STING, HUMAN STING WT BINDING KIT (Cisbio, #64BDSTGPEG) was used according to the manufacture's instruction.

[3] = Normal cell cytotoxicity in CD34+ HSC, CellTiter-Glo; format: cell-based; conditions: human, CD34+ hematopoietic stem cells (HSCs), read-out: In vitro cell cytotoxicity in CD34+ HSC CC50
Experimental: The CD34^+ hematopoietic stem cells (HSCs) were purchased from […]™ (#70002.3). The cells (2×10^4 cells per well) were cultured in StemSpan™ SFEM II medium supplemented with StemSpan™ CD34+ Expansion Supplement (#02691) in a 6-well plate at 37° C. for 7 days. On day 3 or 4, an equal volume of fresh complete medium was added into the cell culture. On day 7, the cells (4×10^4 cells per well) were seeded in a 96-well white plate and rested for 24 hours in the same condition.
After 72 hours, the cell viability was measured using CellTiter-Glo Luminescent Cell Viability Assay (Promega, #G7573) according to the manufacture's instruction. The signal was detected using an EnVision Xcite multilabel reader and data were analyzed using GraphPad Prism 8 software.

T2 sequence (Q86WV6 whole entry R71H/G230A/H232R/R293Q): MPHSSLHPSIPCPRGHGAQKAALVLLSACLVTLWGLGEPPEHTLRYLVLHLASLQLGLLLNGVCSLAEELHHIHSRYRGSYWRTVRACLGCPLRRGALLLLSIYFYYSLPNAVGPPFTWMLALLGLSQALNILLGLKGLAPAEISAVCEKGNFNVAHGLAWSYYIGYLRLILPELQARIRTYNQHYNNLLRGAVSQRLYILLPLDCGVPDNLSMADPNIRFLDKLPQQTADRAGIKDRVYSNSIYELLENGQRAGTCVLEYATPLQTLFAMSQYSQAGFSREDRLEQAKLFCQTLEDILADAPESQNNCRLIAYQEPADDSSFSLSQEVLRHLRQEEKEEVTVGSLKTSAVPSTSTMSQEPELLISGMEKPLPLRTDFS
T1 sequence (Q86WV6 whole entry H232R): as the sequence (Q86WV6 whole entry R71H/G230A/H232R/R293Q) above, with H71R, A230G, Q293R counted along it
T4 sequence (Q86WV6 whole entry H232R): as the sequence (Q86WV6 whole entry R71H/G230A/H232R/R293Q) above, with H71R, A230G, Q293R counted along it

| SMILES | EC50 (hSTING-WT (R232)) [nM] | EC50 (hSTING HAQ variant) [nM] | EC50 (hSTING H232 variant) [nM] | AUC∞, norm [1] [kg·h/L] | Cmax, norm [1] [kg/L] | AUC(0-inf) [1] [ng·h/mL] | AUC(0-t) [1] [ng·h/mL] | C0 [1] [ng/mL] | Cmax [1] [ng/mL] | clearance [1] [mL/min/kg] | half-life [1] [min] | Vd [1] [L/kg] | EC50 (human STING) [nM] | CC50 at 72 h [2] [nM] | CC50 at 72 h [3] [nM] |
| --- | --- | --- | --- | --- | --- | --- | --- | --- | --- | --- | --- | --- | --- | --- | --- |
| CCn1nc(C)cc1C(=O)Nc1nc2cc(C(N)=O)cc(OC)c2n1C/C=C/Cn1c(NC(=O)c2cc(C)nn2CC)nc2cc(C(N)=O)cc(OC/C=C/Cn3cc(NC(=O)OCc4ccc(O[C@@H]5O[C@H](C(=O)O)[C@@H](O)[C@H](O)[C@H]5O)c(C(=O)NCCC(=O)O)c4)cn3)c21 [Compound 281] | 39.2 | 108 | 96.7 | 9.89 ± 0.90 | 4.11 ± 0.28 | 14800 ± 1340 | 14800 ± 1350 | 6500 ± 490 | 6160 ± 420 | 1.67 | 168 ± 16.2 | 0.32 ± 0.03 | – | 127 | – |
| CCc1nc(C)oc1C(=O)Nc1nc2cc(C(N)=O)cnc2n1C/C=C/Cn1c(NC(=O)c2oc(C)nc2CC)nc2cc(C(N)=O)cc(OCCCO)c21 [Comparative #2, reference compound] | 213 | 213 | 36.6 | 0.05 ± 0.01 | 0.16 ± 0.02 | 80 ± 10 | 70 ± 10 | 380 ± 50 | 240 ± 30 | 328 | 12 ± 1.8 | 5.1 ± 1.01 | 0.13 | 6.28 | – |
| CCn1nc(C)cc1C(=O)Nc1nc2cc(C(N)=O)cc(OC)c2n1C/C=C/Cn1c(NC(=O)c2cc(C)nn2CC)nc2cc(C(N)=O)cc(OCCCN3CCOCC3)c21 [Comparative #1, reference compound] | – | – | – | 0.66 ± 0.07 | 1.94 ± 0.30 | 990 ± 100 | 980 ± 100 | 4630 ± 860 | 2910 ± 450 | 25.5 | 54.6 ± 2.4 | 0.7 ± 0.15 | – | 3.34 | 2.1 |
| CCn1nc(C)cc1C(=O)Nc1nc2cc(C(N)=O)cc(OC/C=C/Cn3cc(NC(=O)OCc4ccc(O[C@@H]5O[C@H](C(=O)O)[C@@H](O)[C@H](O)[C@H]5O)c(C(=O)NCCOCCOCCO[C@@H]5O[C@H](C(=O)O)[C@@H](O)[C@H](O)[C@H]5O)c4)cn3)c2n1C/C=C/Cn1c(NC(=O)c2cc(C)nn2CC)nc2cc(C(N)=O)cc(OCCCC(=O)O)c21 [Compound 396] | 240 | – | – | – | – | – | – | – | – | – | – | – | – | – | 156 |
| CCn1nc(C)cc1C(=O)Nc1nc2cc(C(N)=O)cc(NC/C=C/Cn3cc(N(CCC(=O)O)C(=O)OCc4ccc(O[C@@H]5O[C@H](C(=O)O)[C@@H](O)[C@H](O)[C@H]5O)c(C(=O)NCCOCCOCCN(C)C)c4)cn3)c2n1C/C=C/Cn1c(NC(=O)c2cc(C)nn2CC)nc2cc(C(N)=O)cc(OC)c21 [Compound 363] | 403 | – | – | – | – | – | – | – | – | – | – | – | 0.8 | – | 86.1 |
| CCn1nc(C)cc1C(=O)Nc1nc2cc(C(N)=O)cc(OC)c2n1C/C=C/Cn1c(NC(=O)c2cc(C)nn2CC)nc2cc(C(N)=O)cc(OC/C=C/CN3CCN(C(=O)OCc4ccc(O[C@@H]5O[C@H](C(=O)O)[C@@H](O)[C@H](O)[C@H]5O)c(C(=O)NCCOCCOCCO)c4)CC3=O)c21 [Compound 302] | 46.7 | 83.5 | 96.6 | – | – | – | – | – | – | – | – | – | 0.38 | 59.2 | 21.5 |

Second part, led by results:

| EC50 (hSTING-WT (R232)) [nM] | EC50 (hSTING HAQ variant) [nM] | EC50 (hSTING H232 variant) [nM] | AUC∞, norm [1] [kg·h/L] | Cmax, norm [1] [kg/L] | AUC(0-inf) [1] [ng·h/mL] | AUC(0-t) [1] [ng·h/mL] | C0 [1] [ng/mL] | Cmax [1] [ng/mL] | clearance [1] [mL/min/kg] | half-life [1] [min] | Vd [1] [L/kg] | EC50 (human STING) [nM] | SMILES | CC50 at 72 h [2] [nM] | CC50 at 72 h [3] [nM] |
| --- | --- | --- | --- | --- | --- | --- | --- | --- | --- | --- | --- | --- | --- | --- | --- |
| 72 | 517 | 117 | – | – | – | – | – | – | – | – | – | 1.6 | CCn1nc(C)cc1C(=O)Nc1nc2cc(C(N)=O)cc(OC)c2n1C/C=C/Cn1c(NC(=O)c2cc(C)nn2CC)nc2cc(C(N)=O)cc(OC/C=C/CN3CCCN3C(=O)OCc3ccc(O[C@@H]4O[C@H](C(=O)O)[C@@H](O)[C@H](O)[C@H]4O)c(C(=O)NCCOCCOCCN(C)C)c3)c21 [Compound 424] | 147 | 30.6 |
| 31.2 | 52 | 70.4 | – | – | – | – | – | – | – | – | – | 0.4 | CCn1nc(C)cc1C(=O)Nc1nc2cc(C(N)=O)cc(OC)c2n1C/C=C/Cn1c(NC(=O)c2cc(C)nn2CC)nc2cc(C(N)=O)cc(OC/C=C/CN3CCN(C(=O)OCc4ccc(O[C@@H]5O[C@H](C(=O)O)[C@@H](O)[C@H](O)[C@H]5O)c(C(=O)NCCOCCOCCN(C)C)c4)CC3=O)c21 [Compound 309] | 44.3 | – |
| 45 | 477 | 119 | – | – | – | – | – | – | – | – | – | 0.92 | CCn1nc(C)cc1C(=O)Nc1nc2cc(C(N)=O)cc(OC)c2n1C/C=C/Cn1c(NC(=O)c2cc(C)nn2CC)nc2cc(C(N)=O)cc(OC/C=C/CN3CCCN3C(=O)OCc3ccc(O[C@@H]4O[C@H](C(=O)O)[C@@H](O)[C@H](O)[C@H]4O)c(C(=O)NCCOCCOCCO)c3)c21 [Compound 422] | 207 | 32.1 |
